Data published in patent USRE49735E1 (BRISTOL-MYERS SQUIBB COMPANY, priority 2010, dated 2023).
Values joined by “and” are separate entries in the source; they are usually repeats but may differ in a detail not shown here. Equal entries are not always repeated.

The compounds below were run against human mGluR5A (Homo sapiens, UniProt P41594) (assay: mGluR5 FLIPR Assay). Details: positive modulator activity; HEK293 (ZF) cells with human mGluR5A and rat GLAST; Ca++ response to ~EC10 glutamate.
Assay type: cell-based

Chain of human mGluR5A (P41594 21-1180 isoform P41594-2): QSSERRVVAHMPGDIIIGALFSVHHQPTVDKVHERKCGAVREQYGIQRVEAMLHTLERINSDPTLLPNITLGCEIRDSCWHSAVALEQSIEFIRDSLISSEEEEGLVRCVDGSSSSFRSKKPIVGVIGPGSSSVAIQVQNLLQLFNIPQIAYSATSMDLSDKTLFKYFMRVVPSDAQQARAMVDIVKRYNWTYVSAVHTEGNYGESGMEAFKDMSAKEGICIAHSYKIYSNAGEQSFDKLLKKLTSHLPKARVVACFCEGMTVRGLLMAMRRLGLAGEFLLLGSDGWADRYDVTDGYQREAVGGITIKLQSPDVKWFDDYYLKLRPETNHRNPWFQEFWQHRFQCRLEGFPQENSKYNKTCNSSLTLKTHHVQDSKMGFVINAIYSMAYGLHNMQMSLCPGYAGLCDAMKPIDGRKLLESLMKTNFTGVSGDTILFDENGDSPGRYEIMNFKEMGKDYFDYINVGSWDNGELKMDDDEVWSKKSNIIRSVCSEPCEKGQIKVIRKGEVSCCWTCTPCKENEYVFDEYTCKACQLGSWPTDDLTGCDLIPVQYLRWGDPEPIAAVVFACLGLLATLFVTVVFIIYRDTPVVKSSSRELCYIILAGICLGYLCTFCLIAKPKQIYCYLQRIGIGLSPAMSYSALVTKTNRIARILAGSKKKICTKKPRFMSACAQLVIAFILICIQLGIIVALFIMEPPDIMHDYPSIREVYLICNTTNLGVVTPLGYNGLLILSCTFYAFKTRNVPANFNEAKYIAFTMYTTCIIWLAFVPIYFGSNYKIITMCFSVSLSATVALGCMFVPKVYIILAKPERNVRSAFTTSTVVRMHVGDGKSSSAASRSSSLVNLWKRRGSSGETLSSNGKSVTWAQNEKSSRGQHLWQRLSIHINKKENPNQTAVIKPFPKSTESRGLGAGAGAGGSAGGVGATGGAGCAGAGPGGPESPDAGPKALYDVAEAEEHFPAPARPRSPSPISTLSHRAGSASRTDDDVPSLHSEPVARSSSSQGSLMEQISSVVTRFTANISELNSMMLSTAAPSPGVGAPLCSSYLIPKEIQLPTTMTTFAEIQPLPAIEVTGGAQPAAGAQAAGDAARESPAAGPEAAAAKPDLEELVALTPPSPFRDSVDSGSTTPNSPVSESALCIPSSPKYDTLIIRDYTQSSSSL

Compound	EC50
COc1cccc([C@H]2OC(=O)N[C@@H]2c2cccc(C#Cc3ccc(OC)nc3)c2)c1 [Example 71, (4R,5R)-5-(3-Methoxyphenyl)-4-(3-((6-methoxypyridin-3-yl)ethynyl)phenyl)oxazolidin-2-one]	100 to 1000 nM and 325 nM
COc1cccc([C@H]2OC(=O)N[C@@H]2c2cccc(C#Cc3ccncn3)c2)c1 [Example 74, (4R,5R)-5-(3-Methoxyphenyl)-4-(3-(pyrimidin-4-ylethynyl)phenyl)oxazolidin-2-one]	> 30000 nM
COc1cccc([C@H]2OC(=O)N[C@@H]2c2cccc(C#Cc3cccc(C#N)n3)c2)c1 [Example 75, 6-((3-((4R,5R)-5-(3-Methoxyphenyl)-2-oxooxazolidin-4-yl)phenyl)ethynyl)picolinonitrile]	> 30000 nM
COc1cccc([C@H]2OC(=O)N[C@@H]2c2cccc(C#Cc3cnc4ccccc4c3)c2)c1 [Example 76, (4R,5R)-5-(3-Methoxyphenyl)-4-(3-(quinolin-3-ylethynyl)phenyl)oxazolidin-2-one]	> 30000 nM
COc1cccc([C@H]2OC(=O)N[C@@H]2c2cccc(C#Cc3cccnc3Cl)c2)c1 [Example 85, (4R,5R)-4-(3-((2-Chloropyridin-3-yl)ethynyl)phenyl)-5-(3-methoxyphenyl)oxazolidin-2-one]	> 1000 nM
COc1cccc([C@H]2OC(=O)N[C@@H]2c2cccc(C#Cc3cccnc3C)c2)c1 [Example 87, (4R,5R)-5-(3-Methoxyphenyl)-4-(3-((2-methylpyridin-3-yl)ethynyl)phenyl)oxazolidin-2-one]	> 1000 nM
COc1cccc([C@H]2OC(=O)N[C@@H]2c2cccc(C#Cc3cnccc3C)c2)c1 [Example 88, (4R,5R)-5-(3-Methoxyphenyl)-4-(3-((4-methylpyridin-3-yl)ethynyl)phenyl)oxazolidin-2-one]	> 1000 nM
COc1cccc([C@H]2OC(=O)N[C@@H]2c2cccc(C#Cc3ccnc(OC)c3)c2)c1 [Example 89, (4R,5R)-5-(3-Methoxyphenyl)-4-(3-((2-methoxypyridin-4-yl)ethnyl)phenyl)oxazolidin-2-one]	> 1000 nM
COc1cccc([C@H]2OC(=O)N[C@@H]2c2cccc(C#Cc3ccccc3C#N)c2)c1 [Example 90, 2-((3-((4R,5R)-5-(3-Methoxyphenyl)-2-oxooxazolidin-4-yl)phenyl)ethynyl)benzonitrile]	> 1000 nM
COc1cccc([C@H]2OC(=O)N[C@@H]2c2cccc(C#Cc3cnccc3OC)c2)c1 [Example 92, (4R,5R)-5-(3-Methoxyphenyl)-4-(3-((4-methoxypyridin-3-yl)ethynyl)phenyl)oxazolidin-2-one]	> 1000 nM
CNc1ncc(C#Cc2cccc([C@H]3NC(=O)O[C@@H]3c3cccc(OC)c3)c2)cn1 [Example 93]	> 1000 nM
CCOc1ncc(C#Cc2cccc([C@H]3NC(=O)O[C@@H]3c3cccc(OC)c3)c2)cn1 [Example 94, (4R,5R)-4-(3-((2-Ethoxypyrimidin-5-yl)ethynyl)phenyl)-5-(3-methoxyphenyl)oxazolidin-2-one]	> 1000 nM
O=C1N[C@@H](c2cccc(C#Cc3ccccc3)c2)[C@@H](c2ccccc2)O1 [Example 97, (4S,5R)-5-phenyl-4-(3-(phenylethynyl)phenyl)oxazolidin-2-one]	> 1000 nM
Cc1ccc([C@@H]2OC(=O)N[C@H]2c2cccc(C#Cc3ccccc3)c2)cc1 [Example 108]	> 1000 nM
O=C1N[C@@H](c2cccc(C#Cc3ccccc3)c2)[C@H](c2ccccc2F)O1 [Example 110, (4S,5S)-5-(2-fluorophenyl)-4-(3-(phenylethynyl)phenyl)oxazolidin-2-one]	> 1000 nM
O=C1N[C@@H](c2cccc(C#Cc3ccccc3)c2)[C@H](c2ccc(F)cc2)O1 [Example 115, (4S,5S)-5-(4-fluorophenyl)-4-(3-(phenylethynyl)phenyl)oxazolidin-2-one]	> 1000 nM
O=C1N[C@H](c2cccc(C#Cc3ccccc3)c2)[C@@H](c2cccnc2)O1 [Example 117, (4R,5R)-4-(3-(phenylethynyl)phenyl)-5-(pyridin-3-yl)oxazolidin-2-one]	< 100 nM and 4.7 nM
O=C1N[C@@H](c2cccc(C#Cc3ccccc3)c2)[C@H](c2cccnc2)O1 [Example 118, (4S,5S)-4-(3-(phenylethynyl)phenyl)-5-(pyridin-3-yl)oxazolidin-2-one]	> 1000 nM
COc1cccc([C@H]2OC(=O)N[C@@H]2c2cccc(C#Cc3ccc(C(F)(F)F)cc3)c2)c1 [Example 119, (4R,5R)-5-(3-methoxyphenyl)-4-(3-((4-(trifluoromethyl)phenyl)ethynyl)phenyl)oxazolidin-2-one]	> 1000 nM
COc1cccc([C@@H]2OC(=O)N[C@H]2c2cccc(C#Cc3cc(F)cc(F)c3)c2)c1 [Example 124, (4S,5S)-4-(3-((3,5-difluorophenyl)ethynyl)phenyl)-5-(3-methoxyphenyl)oxazolidin-2-one]	> 1000 nM
COc1cccc([C@H]2OC(=O)N[C@@H]2c2cccc(C#Cc3ccccc3C(F)(F)F)c2)c1 [Example 125, (4R,5R)-5-(3-methoxyphenyl)-4-(3-((2-(trifluoromethyl)phenyl)ethynyl)phenyl)oxazolidin-2-one]	> 30000 nM
COc1cccc([C@@H]2OC(=O)N[C@H]2c2cccc(C#Cc3ccccc3C(F)(F)F)c2)c1 [Example 126, (4S,5S)-5-(3-methoxyphenyl)-4-(3-((2-(trifluoromethyl)phenyl)ethynyl)phenyl)oxazolidin-2-one]	> 30000 nM

Second part, the compound after the results:

EC50	Compound
< 100 nM	COc1cccc([C@H]2OC(=O)N[C@@H]2c2cccc(C#Cc3ccc(F)nc3)c2)c1 [Example 69]
> 1000 nM	COc1cccc([C@H]2OC(=O)N[C@@H]2c2cccc(C#Cc3ccc(C#N)nc3)c2)c1 [Example 70, 5-((3-((4R,5R)-5-(3-Methoxyphenyl)-2-oxazolidin-4-yl)phenyl)ethynyl)picolinonitrile]
< 100 nM	COc1cccc([C@H]2OC(=O)N[C@@H]2c2cccc(C#Cc3cccc(F)n3)c2)c1 [Example 72, (4R,5R)-4-(3-((6-Fluoropyridin-2-yl)ethnyl)phenyl)-5-(3-methoxyphenyl)oxazolidin-2-one]
< 100 nM	COc1cccc([C@H]2OC(=O)N[C@@H]2c2cccc(C#Cc3ccnc(F)c3)c2)c1 [Example 73, (4R,5R)-4-(3-((2-Fluoropyridin-4-yl)ethynyl)phenyl)-5-(3-methoxyphenyl)oxazolidin-2-one]
> 1000 nM	COc1cccc([C@H]2OC(=O)N[C@@H]2c2cccc(C#Cc3cccc(O)n3)c2)c1 [Example 77, (4R,5R)-4-(3-((6-Hydroxypyridin-2-yl)ethnyl)phenyl)-5-(3-methoxyphenyl)-oxazolidin-2-one]
> 1000 nM	COc1cccc([C@H]2OC(=O)N[C@@H]2c2cccc(C#Cc3cccnc3OC)c2)c1 [Example 78, (4R,5R)-5-(3-Methoxyphenyl)-4-(3-((2-methoxypyridin-3-yl)ethynyl)phenyl)oxazolidin-2-one]
< 100 nM	COc1cccc([C@H]2OC(=O)N[C@@H]2c2cccc(C#Cc3cccnc3F)c2)c1 [Example 79, (4R,5R)-4-(3-((2-Fluoropyridin-3-yl)ethynyl)phenyl)-5-(3-methoxyphenyl)oxazolidin-2-one]
< 100 nM	COc1cccc([C@H]2OC(=O)N[C@@H]2c2cccc(C#Cc3cncc(C#N)c3)c2)c1 [Example 80, 5-((3-((4R,5R)-5-(3-Methoxyphenyl)-2-oxooxazolidin-4yl)-phenyl)ethynyl)nicotinonitrile]
< 100 nM	COc1cccc([C@H]2OC(=O)N[C@@H]2c2cccc(C#Cc3cncc(F)c3)c2)c1 [Example 81, (4R,5R)-4-(3-((5-Fluoropyridin-3-yl)ethynyl)phenyl)-5-(3-methoxyphenyl)oxazolidin-2-one]
100 to 1000 nM	COc1cccc([C@H]2OC(=O)N[C@@H]2c2cccc(C#Cc3ccc(Cl)nc3)c2)c1 [Example 82, (4R,5R)-4-(3-((6-Chloropyridin-3-yl)ethynyl)phenyl)-5-(3-methoxyphenyl)oxazolidin-2-one]
100 to 1000 nM	COc1cccc([C@H]2OC(=O)N[C@@H]2c2cccc(C#Cc3ccc(C)nc3)c2)c1 [Example 83, (4R,5R)-5-(3-Methoxyphenyl)-4-(3-((6-methylpyridin-3-yl)ethynyl)phenyl)oxazolidin-2-one]
> 1000 nM	COc1cccc([C@H]2OC(=O)N[C@@H]2c2cccc(C#Cc3cnccc3Cl)c2)c1 [Example 84, (4R,5R)-4-(3-((4-Chloropyridin-3-yl)ethynyl)phenyl)-5-(3-methoxyphenyl)oxazolidin-2-one]
< 100 nM	COc1cccc([C@H]2OC(=O)N[C@@H]2c2cccc(C#Cc3cncc(C)c3)c2)c1 [Example 86, (4R,5R)-5-(3-Methoxyphenyl)-4-(3-((5-methylpyridin-3-yl)ethynyl)phenyl)oxazolidin-2-one]
100 to 1000 nM	COc1cccc([C@H]2OC(=O)N[C@@H]2c2cccc(C#Cc3ccccc3OC)c2)c1 [Example 91, (4R,5R)-5-(3-Methoxyphenyl)-4-(3-((2-methoxyphenyl)ethynyl)phenyl)oxazolidin-2-one]
< 100 nM	Cc1ccc([C@H]2OC(=O)N[C@@H]2c2cccc(C#Cc3ccccc3)c2)cc1C [Example 101, (4R,5R)-5-(3,4-dimethylphenyl)-4-(3-(phenylethynyl)phenyl)oxazolidin-2-one]
< 100 nM	Cc1ccc([C@H]2OC(=O)N[C@@H]2c2cccc(C#Cc3ccccc3)c2)cc1 [Example 107]
< 100 nM	O=C1N[C@H](c2cccc(C#Cc3ccccc3)c2)[C@@H](c2ccccc2F)O1 [Example 109, (4R,5R)-5-(2-fluorophenyl)-4-(3-(phenylethynyl)phenyl)oxazolidin-2-one]
100 to 1000 nM	O=C1NC(c2cccc(C#Cc3ccccc3)c2)C(c2cccc(F)c2)O1 (stereo not drawn) [Example 113]
< 100 nM	COc1cccc([C@H]2OC(=O)N[C@@H]2c2cccc(C#Cc3ccccc3F)c2)c1 [Example 121, (4R,5R)-4-(3-((2-fluorophenyl)ethynyl)phenyl)-5-(3-methoxyphenyl)oxazolidin-2-one]
100 to 1000 nM	COc1cccc([C@H]2OC(=O)N[C@@H]2c2cccc(C#Cc3cc(F)cc(F)c3)c2)c1 [Example 123, (4R,5R)-4-(3-((3,5-difluorophenyl)ethynyl)phenyl)-5-(3-methoxyphenyl)oxazolidin-2-one]
